This note sets out measurements from US20180110824A1, “Macrocyclic Modulators of the Ghrelin Receptor” (Ocera Therapeutics, Inc., priority 2016, published 2018).

Structures are written as SMILES. Read-outs that look alike come from different tables or passages of the source.

Assay [1] concerns the target T1, human ghrelin receptor (hGHS-R1a) (Homo sapiens, UniProt Q92847).
T1 construct: host or cells: CHO-K1 co-expressing Gα16 and mitochondrially targeted aequorin
The experiment in a line: Aequorin functional assay (ghrelin receptor), CHO-K1 cells co-expressing Gα16 and aequorin. The class given is cell-based. Conditions: read-out: EC50. The essentials: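 CHO-K1 cells expressing hGHS-R1a, Gα16 and mitochondrial aequorin, loaded overnight at rt with 5 μM coelenterazine, then challenged in DMEM/0.1% BSA pH 7.0 with compound at 0.001–10 μM (DMSO <0.6%).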

For assay [2], the system named is gastric emptying in fasted rats. The experiment in a line: Gastric emptying in fasted rats (phenol red methylcellulose meal). As to conditions: i.v. The assay is classed as in vivo, rat. The procedure: To examine the effects of compounds of the invention in a model for gastroparesis, compounds were evaluated for possible effects on gastric emptying in fasted rats.
GHRP-6 and test samples were dissolved in vehicle of 9% HPBCD/0.9% NaCl. Immediately following oral administration of methylcellulose (2%) containing phenol red (0.05%) (2 mL/rat), test substances or vehicle (9% HPBCD/0.9% NaCl) were each administered intravenously (i.v.) at a dosing volume of 5 mL/kg.
Male Wistar rats were provided by LASCO (A Charles River Licensee Corporation, Taiwan). Space allocation for 6 animals was 45×23×15 cm. Animals were housed in APEC® cages and maintained in a controlled temperature (22° C.-24° C.) and humidity (60% -80%) environment with 12 h light, 12 h dark cycles for at least one week in the laboratory prior to being used. Free access to standard lab chow for rats (Lab Diet, Rodent Diet, PMI Nutrition International, USA) and tap water was granted. All aspects of this work including housing, experimentation and disposal of animals were performed in general accordance with the Guide for the Care and Use of Laboratory Animals (National Academy Press, Washington, D.C., 1996).
Test substances were each administered intravenously to a group of 5 O/N-fasted Wistar derived male rats weighing 200±20 g immediately after methylcellulose (2%) containing phenol red (0.05%) was administered orally at 2 mL/animal. The animals were then sacrificed 15 minutes later. The stomach was immediately removed, homogenized in 0.1 N NaOH (5 mL) and centrifuged. Following protein precipitation by 20% trichloroacetic acid (0.5 mL)and re-alkalization of the supernatant with 0.1 N NaOH, total phenol red remaining in the stomach was determined by a colorimetric method at 560 nm. A 30 percent or more (≥30%) increase in gastric emptying, detected as the decrease in phenol red concentration in the stomach relative to the vehicle control group, is considered significant.
• 1. Overnight-fasted rats (male Wistar, ˜200 g, N=5/group) were given a meal of methylcellulose (2%) by intragastric gavage. The meal was labeled with phenol red (0.05%). • 2. […] Animals were sacrificed 15 minutes later; the stomach was immediately removed and homogenized in 0.1 N NaOH and centrifuged. • 4. Total phenol red remaining in the stomach was quantified by a colorimetric method at 560 nm. • 5. A >30% increase in gastric emptying, detected based on the phenol red concentration in comparison to the control group, is considered significant.

Assay [3] has as its system morphine-delayed gastric emptying and gastrointestinal transit in rats. The experiment in a line: Opioid (morphine)-delayed gastric emptying and gastrointestinal transit in rats. The assay is classed as in vivo, rat. As to conditions: i.v., after morphine 3 mg/kg s.c., FIG. 16B. An excerpt:
Opioid analgesics, such as morphine, are well known to delay gastrointestinal transit which is an important side-effect for this class of drugs. The clinical term for this syndrome is opioid bowel dysfunction (OBD). Importantly, patients recovering from abdominal surgery experience post-operative ileus that is further exacerbated by concomitant opioid therapy for post-surgical pain.
• 1. Rats (male, Sprague-Dawley, 250-300 g) are implanted with jugular vein catheters to accommodate dosing of test articles. • 2. Overnight-fasted rats are administered morphine (3 mg/kg s.c.). • 3. […] Radioactivity (^99mTc) in each tissue isolate is measured as a means of measuring the transit of the meal.

T1 sequence (Q92847 whole entry): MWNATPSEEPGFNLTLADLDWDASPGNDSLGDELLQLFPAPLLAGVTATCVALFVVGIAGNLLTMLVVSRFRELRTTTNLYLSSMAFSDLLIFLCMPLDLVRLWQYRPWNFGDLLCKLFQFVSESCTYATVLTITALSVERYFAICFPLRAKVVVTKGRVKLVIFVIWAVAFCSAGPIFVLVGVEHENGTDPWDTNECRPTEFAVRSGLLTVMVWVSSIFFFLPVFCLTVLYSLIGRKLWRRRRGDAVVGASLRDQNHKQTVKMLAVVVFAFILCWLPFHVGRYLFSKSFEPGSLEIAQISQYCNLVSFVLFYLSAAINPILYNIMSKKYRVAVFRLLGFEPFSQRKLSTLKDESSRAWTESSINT

As to `CC1C(=O)NC(Cc2ccc(F)cc2)C(=O)NCCCc2ccccc2O[C@H](C)CNC(C2CC2)C(=O)N1C` (some centres unmarked) [compound 298], the EC50 was 1 to 100 nM in assay [1] (Table 4, functional (agonist) activity, TFA salts unless otherwise noted) and 25 nM in assay [1] (activation of hGHS-R1a, FIG. 11). Further, the “gastric emptying of a meal in naïve rat” value in assay [2] (FIGS. 14A and 14B) is reported as “caused significant gastric emptying in a dose-dependent manner”. For the same molecule, the “potency superior to metoclopramide in gastric emptying” value in assay [2] (naïve rats, FIG. 14B) is ~100 fold. Besides, the opioid-delayed gastrointestinal transit result in assay [3] is on record as “effectively reversed in a dose-dependent manner”.

The term EC50 denotes the concentration that produces a half-maximal response.
